Results reported in US11066412B2, “Substituted pyrrolo[2,1-a]phthalazines and benzo[g]pyrrolo[2,1-a]phthalazines for the treatment of cancer” (Academia Sinica, priority 2017, dated 2021).
Read-outs that look alike come from different tables or passages of the source.

Key:
[1] = test system: human lymphoblastic leukemia cell line (CCRF-CEM); experiment: in vitro cytotoxicity, PrestoBlue assay; assay type: cell-based; conditions: read-out: IC50 CCRF-CEM
Experimental: (§1) All representative compounds of Formulae (I-A) and (I-B) were first evaluated for their in vitro cytotoxicity to human lymphoblastic leukemia cell line (CCRF-CEM) and its vinblastine-resistant sub-cell line (CCRF-CEM/VBL) (see Table 1).
(§2) After a 72-hr incubation in various concentrations of the newly synthesized compounds, the cytotoxic effects of them to all cell lines were determined by the PrestoBlue®(Invitrogen) assay using a microplate spectrophotometer. Briefly, at the end of treatment, an aliquot of PrestoBlue® solution was added and then cells were incubated at 37° C. for 1-2 hr. The absorbance at 570 and 600 nm was measured with a microplate reader. […] The ICso is defined by the concentration required to inhibit tumor cell growth by 50%. Data represent the mean±STDEV of three to six independent experiments for each compound.

[2] = test system: vinblastine-resistant sub-cell line (CCRF-CEM/VBL); experiment: in vitro cytotoxicity, PrestoBlue assay; assay type: cell-based, human; conditions: for IC50: read-out: IC50 CEM/VBL; for resistance factor (IC50 CEM/VBL vs IC50 of the parent cell line): number in brackets
Experimental: as §1, §2

H146 = experiment: in vitro cytotoxicity to SCLC cells; assay type: cell-based, human; conditions: Table 3
Experimental: as §2

H211 = experiment: in vitro cytotoxicity to SCLC cells; assay type: cell-based, human; conditions: Table 3
Experimental: as §2

H82 = experiment: in vitro cytotoxicity to SCLC cells; assay type: cell-based, human; conditions: Table 3
Experimental: as §2

H1417 = experiment: in vitro cytotoxicity to SCLC cells; assay type: cell-based, human; conditions: Table 3
Experimental: as §2

[3] = test system: small cell lung cancer H526; experiment: in vitro cytotoxicity, PrestoBlue assay; assay type: cell-based, human; conditions: Table 3, read-out: IC50 H526
[4] = 72-hr incubation, mean ± STDEV of three to six experiments
[5] = Homo sapiens, CCRF-CEM, footnote d: IC50 values in nM

Structure (SMILES) | IC50 [1, 4] | IC50 [2, 4] | resistance factor (IC50 CEM/VBL vs IC50 of the parent cell line) [2] | also measured
Cc1c(COC(=O)NC(C)C)c(COC(=O)NC(C)C)c2c3ccccc3c(N3CCOCC3)nn12 [BO-2574] | 1170 ± 180 nM | 960 ± 160 nM | 0.82 × | 
CCNC(=O)OCc1c(COC(=O)NCC)c2c3ccccc3c(N3CCOCC3)nn2c1CC [BO-2625] | 3440 ± 820 nM | 5110 ± 910 nM | 1.48 × | 
CCc1c(COC(=O)NC(C)C)c(COC(=O)NC(C)C)c2c3ccccc3c(N3CCOCC3)nn12 [BO-2626] | 3680 ± 250 nM | 1580 ± 200 nM | 0.43 × | 
CCNC(=O)OCc1c(COC(=O)NCC)c2c3ccccc3c(N3CCOCC3)nn2c1-c1ccc(OC)cc1 [BO-2630] | 6120 ± 880 nM | 7210 ± 250 nM | 1.18 × | 
COc1ccc(-c2c(COC(=O)NC(C)C)c(COC(=O)NC(C)C)c3c4ccccc4c(N4CCOCC4)nn23)cc1 [BO-2631] | 2850 ± 1520 nM | 3070 ± 430 nM | 1.07 × | 
Cc1c(COC(=O)NC(C)C)c(COC(=O)NC(C)C)c2c3ccccc3c(N3CCCC3)nn12 [BO-2717] | 4110 ± 150 nM | 3160 ± 180 nM | 0.77 × | 
Cc1c(CO)c(CO)c2c3ccccc3c(N3CCCCC3)nn12 [BO-2720] | 1040 ± 120 nM | 1330 ± 130 nM | 1.28 × | 
CCNC(=O)OCc1c(COC(=O)NCC)c2c3ccccc3c(N3CCCCC3)nn2c1C [BO-2721] | 1280 ± 90 nM | 1230 ± 200 nM | 0.96 × | 
Cc1c(COC(=O)NC(C)C)c(COC(=O)NC(C)C)c2c3ccccc3c(N3CCCCC3)nn12 [BO-2722] | 1920 ± 110 nM | 1730 ± 90 nM | 0.90 × | 
CCNC(=O)OCc1c(COC(=O)NCC)c2c3cc4ccccc4cc3c(N3CCOCC3)nn2c1C [BO-2756] | 310 ± 20 nM | 320 ± 40 nM | 1.03 × | IC50 (H146): 1510 ± 830 nM; IC50 (H211): 130 ± 100 nM; IC50 (H82): 740 ± 390 nM; IC50 (H1417): 810 ± 20 nM; IC50 [3]: 150 ± 87 nM
CCNC(=O)OCc1c(COC(=O)NCC)c2c3cc4ccccc4cc3c(N3CCCCC3)nn2c1C [BO-2757] | 950 ± 50 nM | 1200 ± 140 nM | 1.26 × | IC50 (H146): 4190 ± 700 nM; IC50 (H211): 1030 ± 250 nM; IC50 (H82): 1580 ± 10 nM; IC50 (H1417): 3940 ± 110 nM; IC50 [3]: 540 ± 180 nM
Cc1c(CO)c(CO)c2c3ccccc3c(N(C)C)nn12 [BO-2785] | 3330 ± 390 nM | 2940 ± 260 nM | 0.88 × | 
Cc1c(COC(=O)NC(C)C)c(COC(=O)NC(C)C)c2c3ccccc3c(N(C)C)nn12 [BO-2787] | 1540 ± 220 nM | 970 ± 170 nM | 0.63 × | 
N.N.O=C([O-])C1(C(=O)[O-])CCC1.[Pt+2] [Carboplatin, reference compound] |  |  |  | IC50 (H146): 37100 ± 6380 nM; IC50 (H211): 13900 ± 1560 nM; IC50 (H1417): 8640 ± 1930 nM; IC50 [3]: 6430 ± 140 nM
COc1cc([C@@H]2c3cc4c(cc3[C@@H](O[C@@H]3O[C@@H]5CO[C@@H](C)O[C@H]5[C@H](O)[C@H]3O)[C@H]3COC(=O)[C@H]23)OCO4)cc(OC)c1O [Etoposide, reference compound] |  |  |  | IC50 (H146; Homo sapiens, NCI-H146): 2910 ± 170 nM; IC50 (H211; Homo sapiens, NCI-H211): 70 ± 10 nM; IC50 (H82; Homo sapiens, NCI-H82): 1080 ± 420 nM; IC50 (H1417; Homo sapiens, NCI-H1417): 4530 ± 3180 nM; IC50 ([3]; Homo sapiens, NCI-H526): 200 ± 260 nM
CC[C@]1(O)C[C@@H]2CN(CCc3c([nH]c4ccccc34)[C@@](C(=O)OC)(c3cc4c(cc3OC)N(C)[C@H]3[C@@](O)(C(=O)OC)[C@H](OC(C)=O)[C@]5(CC)C=CCN6CC[C@]43[C@@H]65)C2)C1 [Vinblastine, reference compound] |  |  | 278.3 × | IC50 [1, 5]: 1.41 ± 0.1 nM; IC50 [2, 5]: 392 ± 44.8 nM
